Reference: US20250325562A1, “Intravenous Ganaxolone Formulations and Methods of Use in Treating Status Epilepticus and Other Seizure Disorders” (MARINUS PHARMACEUTICALS, INC., priority 2015, published 2025)

System: pilocarpine induced status epilepticus (SE)
Experiment: Pilocarpine-induced status epilepticus in rats, cortical EEG power
Assay type: in vivo, Male Sprague-Dawley rats
Design: key to Treatment effect on EEG power vs vehicle, significance: * P < 0.05; ** P < 0.01; *** P < 0.001; **** P < 0.0001; ns = not significant
Experimental: This study was designed to determine the ability of a CAPTISOL-ganaxolone (GNX) formulation administered intravenously (IV) at 12 and 15 mg/kg to inhibit pilocarpine induced status epilepticus (SE). Allopregnanolone (Allo) (15 mg/kg; IV) was also evaluated for comparison. In this study, test drugs were administered either 15 or 60 minutes after onset of SE and compared to vehicle (30% Captisol).
Cortical EEG activity was recorded in rats before and after administration of pilocarpine to induce SE. Animals were pre-treated with LiCl to enhance and improve reliability of seizure induction and scopolamine to reduce peripheral cholinergic side effects of pilocarpine. EEG activity was recorded for 5 h after SE onset, and anticonvulsant activity was assessed by determining changes in EEG power over frequency ranges from 0.3 to 96 Hz.
Male Sprague-Dawley rats were used for the studies. Rats were surgically implanted with EEG electrodes and jugular vein catheters. The mean weight at the time of recording was 321+3 g (269-351 g).
EEG electrodes were surgically implanted in anesthetized rats. Animals were also treated with an anti-inflammatory anaelgesic (RIMADYL, (carprofen)) prior to surgery and a subcutaneous local anesthetic. Stainless steel screw electrodes chronically were implanted in the skull (0-80×¼″, Plastics-One, Roanoke, VA) such that the ends of the screws were flush with the inner skull surface. One electrode was located 3.0 mm anterior to bregma and 2 mm to the left of midline, and the second 4.0 mm posterior to bregma and 2.5 mm to the right of midline. The skull surface around the electrodes was sealed with super glue and dental acrylic, and the EEG electrode lead wires were inserted into a plastic pedestal mounted on the skull using dental acrylic. Wound edges were treated with triple antibiotic cream (bacitracin zinc, neomycin sulfate, polymyxin B sulfate; Walgreens). Following surgery, animals were administered antibiotic (ampicillin, 50 mg/kg IP at 0.4 mL/kg) and also received a chewable dose (˜10 mg) of Rimadyl following surgery. The animals were allowed to recover from EEG surgery for 1 week.
Rats were implanted with jugular-vein catheters (JVC) one week following EEG surgery. Rats were administered an anti-inflammatory/analgesic and then anesthetized and placed in a supine position. An incision was made in the skin on the right ventrolateral aspect of the neck to expose the external jugular vein which was then dissected free of surrounding fascia. A ligature was tied around the vein anteriorly to occlude blood flow returning to the heart. A second ligature was loosely tied around the vein posteriorly to create tension on the vessel during venotomy and catheter insertion. After incising the vein, a PE catheter (3Fr) was inserted into the vein and advanced approximately 30 mm towards the heart, positioning the tip at the junction of the precava and right atrium. After confirming patency of the catheter by blood withdrawal, the posterior ligature was tied off, and the catheter flushed with a “heparin-lock” solution (5 units heparin/ml saline) and plugged with a sterilized stainless steel pin. The catheter was then exteriorized by tunneling through the subcutaneous tissue to exit posterior to the head between the shoulder blades. Lastly, after suturing the catheter to the skin, all wounds were closed using sutures or wound clips. Immediately following surgery, the animals were awakened to assess catheter patency. Animals also received a chewable dose (˜10 mg) of Rimadyl following surgery to minimize pain and inflammation.
Animals were allowed a 1-week recovery time following JVC surgery. Jugular vein catheters were flushed daily with a 0.1 mL of heparin solution (5 units/mL) to maintain patency. On the day of surgery, the flushing solution contained ampicillin sulbactam (50 mg/kg). […]

CC(=O)[C@H]1CC[C@H]2[C@@H]3CC[C@H]4C[C@](C)(O)CC[C@]4(C)[C@H]3CC[C@]12C [Ganaxolone, 3α-hydroxy, 3β-methyl-5α-pregnan-20-one]
Treatment effect on EEG power vs vehicle, significance (12 mg/kg IV, 60 min post SE onset, 10-30 Hz, 2-3 hrs post drug): * (* P < 0.05) | Treatment effect on EEG power vs vehicle, significance (12 mg/kg IV, 60 min post SE onset, 10-30 Hz, 3-5 hrs post drug): ns | Treatment effect on EEG power vs vehicle, significance (12 mg/kg IV, 60 min post SE onset, 10-30 Hz, 15-30 min post drug): ** (** P < 0.01) | Treatment effect on EEG power vs vehicle, significance (12 mg/kg IV, 60 min post SE onset, 10-30 Hz, 30-60 min post drug): ** (** P < 0.01) | Treatment effect on EEG power vs vehicle, significance (12 mg/kg IV, 60 min post SE onset, 30-50 Hz, 0-15 min. post drug): ns | Treatment effect on EEG power vs vehicle, significance (12 mg/kg IV, 60 min post SE onset, 30-50 Hz, 1-2 hrs post drug): ** (** P < 0.01) | Treatment effect on EEG power vs vehicle, significance (12 mg/kg IV, 60 min post SE onset, 30-50 Hz, 2-3 hrs post drug): * (* P < 0.05) | Treatment effect on EEG power vs vehicle, significance (12 mg/kg IV, 60 min post SE onset, 30-50 Hz, 3-5 hrs post drug): ns | Treatment effect on EEG power vs vehicle, significance (12 mg/kg IV, 60 min post SE onset, 30-50 Hz, 15-30 min post drug): ns | Treatment effect on EEG power vs vehicle, significance (12 mg/kg IV, 60 min post SE onset, 30-50 Hz, 30-60 min post drug): * (* P < 0.05) | Treatment effect on EEG power vs vehicle, significance (12 mg/kg IV, 60 min post SE onset, 50-70 Hz, 0-15 min. post drug): ns | Treatment effect on EEG power vs vehicle, significance (12 mg/kg IV, 60 min post SE onset, 50-70 Hz, 1-2 hrs post drug): ** (** P < 0.01) | Treatment effect on EEG power vs vehicle, significance (12 mg/kg IV, 60 min post SE onset, 50-70 Hz, 15-30 min post drug): * (* P < 0.05) | Treatment effect on EEG power vs vehicle, significance (12 mg/kg IV, 60 min post SE onset, 50-70 Hz, 30-60 min post drug): ** (** P < 0.01) | Treatment effect on EEG power vs vehicle, significance (15 mg/kg IV, 15 min post SE onset, 0-5 Hz, 0-15 min. post drug): **** (**** P < 0.0001) | Treatment effect on EEG power vs vehicle, significance (15 mg/kg IV, 15 min post SE onset, 0-5 Hz, 1-2 hrs post drug): **** (**** P < 0.0001) | Treatment effect on EEG power vs vehicle, significance (15 mg/kg IV, 15 min post SE onset, 0-5 Hz, 2-3 hrs post drug): **** (**** P < 0.0001) | Treatment effect on EEG power vs vehicle, significance (15 mg/kg IV, 15 min post SE onset, 0-5 Hz, 3-5 hrs post drug): *** (*** P < 0.001) | Treatment effect on EEG power vs vehicle, significance (15 mg/kg IV, 15 min post SE onset, 0-5 Hz, 15-30 min post drug): **** (**** P < 0.0001) | Treatment effect on EEG power vs vehicle, significance (15 mg/kg IV, 15 min post SE onset, 0-5 Hz, 30-60 min post drug): **** (**** P < 0.0001) | Treatment effect on EEG power vs vehicle, significance (15 mg/kg IV, 15 min post SE onset, 5-10 Hz, 0-15 min. post drug): **** (**** P < 0.0001) | Treatment effect on EEG power vs vehicle, significance (15 mg/kg IV, 15 min post SE onset, 5-10 Hz, 1-2 hrs post drug): **** (**** P < 0.0001) | Treatment effect on EEG power vs vehicle, significance (15 mg/kg IV, 15 min post SE onset, 5-10 Hz, 2-3 hrs post drug): *** (*** P < 0.001) | Treatment effect on EEG power vs vehicle, significance (15 mg/kg IV, 15 min post SE onset, 5-10 Hz, 3-5 hrs post drug): ns | Treatment effect on EEG power vs vehicle, significance (15 mg/kg IV, 15 min post SE onset, 5-10 Hz, 15-30 min post drug): **** (**** P < 0.0001) | Treatment effect on EEG power vs vehicle, significance (15 mg/kg IV, 15 min post SE onset, 5-10 Hz, 30-60 min post drug): **** (**** P < 0.0001) | Treatment effect on EEG power vs vehicle, significance (15 mg/kg IV, 15 min post SE onset, 10-30 Hz, 0-15 min. post drug): **** (**** P < 0.0001) | Treatment effect on EEG power vs vehicle, significance (15 mg/kg IV, 15 min post SE onset, 10-30 Hz, 1-2 hrs post drug): ** (** P < 0.01) | Treatment effect on EEG power vs vehicle, significance (15 mg/kg IV, 15 min post SE onset, 10-30 Hz, 2-3 hrs post drug): * (* P < 0.05) | Treatment effect on EEG power vs vehicle, significance (15 mg/kg IV, 15 min post SE onset, 10-30 Hz, 3-5 hrs post drug): ns | Treatment effect on EEG power vs vehicle, significance (15 mg/kg IV, 15 min post SE onset, 10-30 Hz, 15-30 min post drug): **** (**** P < 0.0001) | Treatment effect on EEG power vs vehicle, significance (15 mg/kg IV, 15 min post SE onset, 10-30 Hz, 30-60 min post drug): **** (**** P < 0.0001) | Treatment effect on EEG power vs vehicle, significance (15 mg/kg IV, 15 min post SE onset, 30-50 Hz, 0-15 min. post drug): *** (*** P < 0.001) | Treatment effect on EEG power vs vehicle, significance (15 mg/kg IV, 15 min post SE onset, 30-50 Hz, 1-2 hrs post drug): ** (** P < 0.01) | Treatment effect on EEG power vs vehicle, significance (15 mg/kg IV, 15 min post SE onset, 30-50 Hz, 2-3 hrs post drug): ns | Treatment effect on EEG power vs vehicle, significance (15 mg/kg IV, 15 min post SE onset, 30-50 Hz, 3-5 hrs post drug): ns | Treatment effect on EEG power vs vehicle, significance (15 mg/kg IV, 15 min post SE onset, 30-50 Hz, 15-30 min post drug): *** (*** P < 0.001) | Treatment effect on EEG power vs vehicle, significance (15 mg/kg IV, 15 min post SE onset, 30-50 Hz, 30-60 min post drug): *** (*** P < 0.001) | Treatment effect on EEG power vs vehicle, significance (15 mg/kg IV, 15 min post SE onset, 50-70 Hz, 0-15 min. post drug): ** (** P < 0.01) | Treatment effect on EEG power vs vehicle, significance (15 mg/kg IV, 15 min post SE onset, 50-70 Hz, 1-2 hrs post drug): ** (** P < 0.01) | Treatment effect on EEG power vs vehicle, significance (15 mg/kg IV, 15 min post SE onset, 50-70 Hz, 2-3 hrs post drug): ns | Treatment effect on EEG power vs vehicle, significance (15 mg/kg IV, 15 min post SE onset, 50-70 Hz, 3-5 hrs post drug): ns | Treatment effect on EEG power vs vehicle, significance (15 mg/kg IV, 15 min post SE onset, 50-70 Hz, 15-30 min post drug): ** (** P < 0.01) | Treatment effect on EEG power vs vehicle, significance (15 mg/kg IV, 15 min post SE onset, 50-70 Hz, 30-60 min post drug): ** (** P < 0.01) | Treatment effect on EEG power vs vehicle, significance (15 mg/kg IV, 15 min post SE onset, 70-96 Hz, 0-15 min. post drug): ** (** P < 0.01) | Treatment effect on EEG power vs vehicle, significance (15 mg/kg IV, 15 min post SE onset, 70-96 Hz, 1-2 hrs post drug): ** (** P < 0.01) | Treatment effect on EEG power vs vehicle, significance (15 mg/kg IV, 15 min post SE onset, 70-96 Hz, 2-3 hrs post drug): ns | Treatment effect on EEG power vs vehicle, significance (15 mg/kg IV, 15 min post SE onset, 70-96 Hz, 3-5 hrs post drug): ns | Treatment effect on EEG power vs vehicle, significance (15 mg/kg IV, 15 min post SE onset, 70-96 Hz, 15-30 min post drug): *** (*** P < 0.001) | Treatment effect on EEG power vs vehicle, significance (15 mg/kg IV, 15 min post SE onset, 70-96 Hz, 30-60 min post drug): ** (** P < 0.01) | reduction in SE amplitude (12 and 15 mg/kg IV): very strong reduction in SE amplitude overall | EEG power (dosed 15 minutes after SE-onset): reduced EEG power across all frequency ranges to levels at or below baseline for at up to 5 h | EEG power (dosed at 60′ post SE-onset, not below baseline up to 70 Hz): strongly reduced
